# Assay results reported in patent US20170029494A1, “Antigen Binding Constructs” (Glaxo Group Limited, priority 2011, published 2017).
# Values joined by “and” are separate entries in the source; they are usually repeats but may differ in a detail not shown here. Equal values may be shown once.
# What was measured:
# [1] = tested on: human VEGF165 induced blood-retinal breakdown; assay: VEGF induced blood-retinal breakdown: rabbit retinal leakage model; assay type: in vivo; parameters: Geometric mean (right eye values adjusted for left eye values): unit not given here; settings: for % reduction vs vehicle / Ratio vs Vehicle: Example 9, Table 4B; for Rt ratio of vitreoretinal fluorescein contents between right-induced and left eyes: Example 9; for Geometric mean (right eye values adjusted for left eye values): Example 42, Table 15B (i)
# [2] = biological target: VEGFR1 (Flt1) (Homo sapiens, UniProt P17948); settings: background statement; cited from earlier work
# [3] = tested on: VEGF165-induced proliferation of human umbilical vein endothelial cells (HUVEC); assay: Human Umbilical Cord Endothelial Cell (HUVEC) proliferation assay; assay type: cell-based; settings: for Predicted Means for Max % Inhibition, Estimate: weighted mixed model analysis
# Description: The assay measures the extent of endothelial cell proliferation induced by a defined concentration of VEGF165 and the ability of VEGF antagonists to block this effect. HUVECs were seeded at 5000 cells per well in 96-well gelatine-coated plates, leaving outer wells free of cells, and incubated for several hours to permit adherence. Test molecules were assayed at equimolar concentrations (max 3.33×10^−08M) with a 2-fold serial dilution, each in triplicate. The VEGF165 was prepared in basal medium to achieve 75 ng/ml final concentration. Medium was removed manually from the cell monolayers and 50 μl basal media was added to prevent the cells from drying out. 25 μl VEGF165-containing medium and 25 μl basal medium or test antibody-containing medium was added as appropriate. Cells were incubated for 72 hrs, after which time the total number of cells was determined using Cell Titre Glo.
# The data was analysed using GraphPad Prism using a Sigmodial curve fit, variable slope cf a non-linear regression (variable slope). Individual curve fits were fitted for each molecule and at each day. Due to some poor fitting, it was decided to introduce constraints for the curve where a plateau was not observed at the lower concentration. This constraint would be equal to the mean of the points at the lowest concentration. Data was manually selected as to whether the minimum was constrained or not, and the curve fit and parameters were automatically updated based upon this criteria selection. Estimates of the curve maxima and the standard error were analysed using a weighted mixed model analysis of variance, using 1/(standard error)^2, [SE]^2, as a weighting. The analysis adjusted for variability between plates and days using random effects terms. […] The same analysis was then performed on the log 10 scale for the IC50, and the results back transformed.
# The data was analysed using GraphPad Prism using a Sigmodial curve fit, variable slope cf a non-linear regression (variable slope). Individual curve fits were fitted for each molecule and at each day. Due to some poor fitting, it was decided to introduce constraints for the curve where a plateau was not observed at the lower concentration. One plate was excluded from the analysis due to poor curve fitting despite constraints. This constraint would be equal to the mean of the points at the lowest concentration. Data was manually selected as to whether the minimum was constrained or not, and the curve fit and parameters were automatically updated based upon this criteria selection. Estimates of the curve maxima and the standard error were analysed using a weighted mixed model analysis of variance, using 1/(standard error)^2, [SE]^2, as a weighting. The analysis adjusted for variability between plates and days using random effects terms. […]
# [4] = biological target: T1, mVEGF R2 Fc (R&D 443-KD/CF) (mouse, UniProt P35918 20-762); assay: MSD on coated mouse VEGF164 (1ug/mL mVEGF capture), detection with sulfo-TAG anti-human IgG Fc
# T1 construct: Bought control protein; not shown: Fc part of the bought fusion
# [5] = Example 42, Table 15B (ii), 2000 μg/eye
# [6] = dose H (high), VEGF induced retinal leakage
# T1 sequence (P35918 20-762 limits assumed): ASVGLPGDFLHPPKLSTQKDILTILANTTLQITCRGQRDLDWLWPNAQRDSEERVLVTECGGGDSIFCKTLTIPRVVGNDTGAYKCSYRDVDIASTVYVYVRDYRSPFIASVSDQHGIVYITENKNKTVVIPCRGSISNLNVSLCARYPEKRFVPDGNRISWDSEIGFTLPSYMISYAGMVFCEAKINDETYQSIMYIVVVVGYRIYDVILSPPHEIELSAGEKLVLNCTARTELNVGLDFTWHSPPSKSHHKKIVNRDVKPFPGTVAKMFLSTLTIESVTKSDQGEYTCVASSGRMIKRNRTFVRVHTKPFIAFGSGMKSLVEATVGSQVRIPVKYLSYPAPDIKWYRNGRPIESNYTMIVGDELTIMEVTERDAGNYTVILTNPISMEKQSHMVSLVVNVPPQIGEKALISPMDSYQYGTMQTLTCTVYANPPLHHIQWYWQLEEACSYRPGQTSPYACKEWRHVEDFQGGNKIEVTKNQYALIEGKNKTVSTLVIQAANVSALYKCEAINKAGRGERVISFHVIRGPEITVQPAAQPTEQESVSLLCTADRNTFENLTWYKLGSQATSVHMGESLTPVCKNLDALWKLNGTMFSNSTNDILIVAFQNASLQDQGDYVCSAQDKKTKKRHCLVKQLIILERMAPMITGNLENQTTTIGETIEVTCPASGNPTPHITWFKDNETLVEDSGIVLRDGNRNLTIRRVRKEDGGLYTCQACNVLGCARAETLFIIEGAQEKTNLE
# VEGFR1 (Flt1), sequence (P17948 27-1338, species assumed): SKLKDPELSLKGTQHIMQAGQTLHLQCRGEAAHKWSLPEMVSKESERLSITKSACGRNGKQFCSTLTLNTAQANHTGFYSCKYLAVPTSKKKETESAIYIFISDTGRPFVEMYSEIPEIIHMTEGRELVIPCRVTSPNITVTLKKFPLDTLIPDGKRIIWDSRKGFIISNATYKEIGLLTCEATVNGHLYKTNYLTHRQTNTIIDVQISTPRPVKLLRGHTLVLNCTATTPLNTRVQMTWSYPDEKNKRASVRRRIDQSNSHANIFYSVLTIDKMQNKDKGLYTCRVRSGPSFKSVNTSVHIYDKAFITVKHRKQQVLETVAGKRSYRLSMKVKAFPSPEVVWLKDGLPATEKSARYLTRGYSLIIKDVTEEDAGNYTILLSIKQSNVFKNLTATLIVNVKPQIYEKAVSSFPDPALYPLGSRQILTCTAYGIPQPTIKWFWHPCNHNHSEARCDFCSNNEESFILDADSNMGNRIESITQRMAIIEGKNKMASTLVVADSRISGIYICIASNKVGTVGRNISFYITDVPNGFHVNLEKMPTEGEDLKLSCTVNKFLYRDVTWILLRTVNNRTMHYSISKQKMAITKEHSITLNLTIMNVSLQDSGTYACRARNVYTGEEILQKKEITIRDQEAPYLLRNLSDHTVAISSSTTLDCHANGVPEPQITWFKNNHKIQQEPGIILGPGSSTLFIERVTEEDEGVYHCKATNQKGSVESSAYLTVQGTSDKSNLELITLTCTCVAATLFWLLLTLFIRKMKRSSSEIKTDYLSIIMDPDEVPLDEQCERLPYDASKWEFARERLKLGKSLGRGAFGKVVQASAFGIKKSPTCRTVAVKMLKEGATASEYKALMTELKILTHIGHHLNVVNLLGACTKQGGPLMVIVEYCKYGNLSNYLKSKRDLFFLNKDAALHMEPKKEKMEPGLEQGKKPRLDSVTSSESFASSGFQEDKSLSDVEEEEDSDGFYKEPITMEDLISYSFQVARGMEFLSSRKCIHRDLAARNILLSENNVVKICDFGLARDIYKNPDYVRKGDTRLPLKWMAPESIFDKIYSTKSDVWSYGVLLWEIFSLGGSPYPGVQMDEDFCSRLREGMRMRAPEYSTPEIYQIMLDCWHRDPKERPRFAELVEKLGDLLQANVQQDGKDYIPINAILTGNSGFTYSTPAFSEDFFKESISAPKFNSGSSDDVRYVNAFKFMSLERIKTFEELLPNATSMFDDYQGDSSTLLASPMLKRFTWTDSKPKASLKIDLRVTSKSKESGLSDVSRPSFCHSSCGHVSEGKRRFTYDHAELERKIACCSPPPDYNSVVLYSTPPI
molecule,measurement,setting,value
"C[C@]12C=CC(=O)C=C1CC[C@H]1[C@@H]3C[C@@H](O)[C@](O)(C(=O)CO)[C@@]3(C)C[C@H](O)[C@@]12F [Kenacort, Triamcinalone]",% reduction vs vehicle,[1]; 2000 μg/eye,85%
same,Ratio vs Vehicle,[1]; 2000 μg/eye,0.1485
same,Rt ratio of vitreoretinal fluorescein contents between right-induced and left eyes,[1]; Kenacort 2000 μg/eye IVT Day -7,1.15±0.61
same,Geometric mean (right eye values adjusted for left eye values),[1]; 2000 μg/eye,10205.21
same,% reduction,[1]; [5],80% and 79.9922%
same,ratio (to vehicle),[1]; [5],0.2001
VEGF,Kd,[2],~0.03 nM
Bevacizumab [Avastin],inhibit HUVEC proliferation,"[3]; Example 8, VEGF165 75 ng/ml, 72 hrs, maximum extent of inhibition",~100%
same,inhibition of VEGF driven HUVEC proliferation (extent),"[3]; Example 18, data not shown",~100%
same,"Predicted Means for Max % Inhibition, Estimate",[3]; Table 14A,73.5423%
same,"Predicted Means for Max % Inhibition, Estimate",[3]; Table 18A,71.0316%
same,% reduction vs vehicle,[1]; [6],75%
same,% reduction vs vehicle,"[1]; dose H (high), VEGF induced retinal leakage, listed as Bevacizumab",75%
same,Geometric mean (right eye values adjusted for left eye values),"[1]; dose H, IVT Day -7",12332.94
same,Geometric mean (right eye values adjusted for left eye values),[1]; dose L,12037.98
same,Geometric mean (right eye values adjusted for left eye values),[1]; dose L/3,14592.62
same,% reduction,"[1]; Example 42, Table 15B (ii), dose H",75.8207%
same,% reduction,"[1]; Example 42, Table 15B (ii), dose L",76.3990%
same,% reduction,"[1]; Example 42, Table 15B (ii), dose L/3",71.3905%
same,reduction of VEGF induced retinal leakage,"[1]; Example 42, the three different doses (H, L, L/3)",71.4-76.4%
Ranibizumab [Lucentis],Ratio vs Vehicle,[1]; dose H (high),0.1826
same,% reduction vs vehicle,[1]; [6],82%
same,% reduction vs vehicle,"[1]; dose H (high), VEGF induced retinal leakage, listed as Ranibizumab",82%
same,Ratio vs Vehicle,[1]; low dose (L),0.2188
same,% reduction vs vehicle,"[1]; low dose (L), VEGF induced retinal leakage",78%
same,% reduction vs vehicle,"[1]; low dose (L), VEGF induced retinal leakage, listed as Ranibizumab",78%
same,Rt ratio of vitreoretinal fluorescein contents between right-induced and left eyes,"[1]; IVT Day -7, 500 ng rhVEGF165 Day 0, read Day 2, dose H (high)",1.05±0.52
same,Rt ratio of vitreoretinal fluorescein contents between right-induced and left eyes,"[1]; IVT Day -7, 500 ng rhVEGF165 Day 0, read Day 2, low dose (L)",1.81±1.76
"mouse VEGF164 (R&D 493-MV/CF) (ligand, UniProt Q00731-2 27-190, looked up, Bought reagent; also called mVEGF164; murine VEGF164) APTTEGEQKSHEVIKFMDVYQRSYCRPIETLVDIFQEYPDEIEYIFKPSCVPLMRCAGCCNDEALECVPTSESNITMQIMRIKPHQSQHIGEMSFLQHSRCECRPKKDRTKPENHCEPCSERRKHLFVQDPQTCKCSCKNTDSRCKARQLELNERTCRCDKPRR",binding result,[4],binds
